Experimental findings from patent US20230017045A1, “PYRIDINE AND PYRIMIDINE CARBOXYLATE HERBICIDES AND METHODS OF USE THEREOF” (Dow AgroSciences LLC, priority 2017, published 2023) are described below.

Where two headings read alike, the source gives them in different places.

The test system of this assay is test plant species. Briefly: Post-emergent herbicidal activity test (greenhouse, foliar spray, visual growth reduction). The assay is classed as in vivo. As to conditions: post-emergence, 336 h, 140 g ai/ha. The essentials: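 Visual percent injury (0-100) rated 14 d after treatment, relative to nontreated and solvent-blank plants. Test plants at first or second true leaf stage received an overhead track-sprayer application at 187 L/ha. Compounds were formulated in aqueous acetone/DMSO carrier containing crop oil concentrate and X-77 surfactant.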

[1] abbreviates: ECHCG: barnyardgrass (Echinochloa crus-galli), 14 days after application, read-out: Visual Growth Reduction (%) 14 Days After Application, ECHCG.
[2] abbreviates: IPOHE: ivy-leaf morning glory (Ipomoea hederacea), 14 days after application, read-out: Visual Growth Reduction (%) 14 Days After Application, IPOHE.
Setting [3] is: KCHSC: kochia (Bassia scoparia), 14 days after application, read-out: Visual Growth Reduction (%) 14 Days After Application, KCHSC.
[4] abbreviates: ORYSA: rice (Oryza sativa), 14 days after application, read-out: Visual Growth Reduction (%) 14 Days After Application, ORYSA.
Setting [5] is: SETFA: giant foxtail (Setaria faberi), 14 days after application, read-out: Visual Growth Reduction (%) 14 Days After Application, SETFA.
Where [6] appears, read: SORVU: grain sorghum (Sorghum vulgare), 14 days after application, read-out: Visual Growth Reduction (%) 14 Days After Application, SORVU.
Setting [7] is: STEME: common chickweed (Stellaria media), 14 days after application, read-out: Visual Growth Reduction (%) 14 Days After Application, STEME.
[8] abbreviates: TRZAS: wheat, spring (Triticum aestivum), 14 days after application, read-out: Visual Growth Reduction (%) 14 Days After Application, TRZAS.
[9] abbreviates: blackgrass (Alopecurus myosuroides), 14 Days After Application, read-out: Visual Growth Reduction (%) ALOMY.
[10] abbreviates: canada thistle (Cirsium arvense), 14 Days After Application, read-out: Visual Growth Reduction (%) CIRAR.
The mark [11] stands for this setting: crabgrass (Digitaria sanguinalis), 14 Days After Application, read-out: Visual Growth Reduction (%) DIGSA.
Setting [12] is: lambsquarters (Chenopodium album), 14 Days After Application, read-out: Visual Growth Reduction (%) CHEAL.
[13] abbreviates: redroot pigweed (Amaranthus retroflexus), 14 Days After Application, read-out: Visual Growth Reduction (%) AMARE.
Where [14] appears, read: wild oat (Avena fatua), 14 Days After Application, read-out: Visual Growth Reduction (%) AVEFA.
The mark [15] stands for this setting: yellow nutsedge (Cyperus esculentus), 14 Days After Application, read-out: Visual Growth Reduction (%) CYPES.

Turning to `COC(=O)c1nc(-c2ccc(C3(C#N)CC3)cc2Cl)c(F)cc1Cl` [F237, Methyl 3-chloro-6-(2-chloro-4-(1-cyanocyclopropyl)phenyl)-5-fluoropicolinate], the pest or weed control at 140 g/ha is 30 to 44% under setting [1]; 95 to 100% under setting [2]; 85 to 94% under setting [3]; 0 to 29% under setting [4]; 75 to 84% under setting [5]; 85 to 94% under setting [6]. Besides, the pest or weed control at 140 g/ha by setting is: under setting [7], 30 to 44%; under setting [8], 45 to 59%; under setting [9], 0 to 29%; under setting [10], 95 to 100%; under setting [11], 85 to 94%; under setting [12], 85 to 94%. The pest or weed control at 140 g/ha is 95 to 100% under setting [13], 45 to 59% under setting [14] and 45 to 59% under setting [15].

For the compound `COC(=O)c1nc(-c2ccc(C3(C#N)CC3)cc2Cl)c(Cl)cc1Cl` [F238, Methyl 3,5-dichloro-6-(2-chloro-4-(1-cyanocyclopropyl)phenyl)picolinate], the pest or weed control at 140 g/ha was in the range of 0 to 29% under setting [1]; 75 to 84% under setting [2]; 0 to 29% under setting [3]; 0 to 29% under setting [4]; 45 to 59% under setting [5]; 60 to 74% under setting [6]. The pest or weed control at 140 g/ha reads like this: under setting [7], 0 to 29%; under setting [8], 0 to 29%; under setting [9], 0 to 29%; under setting [10], 60 to 74%; under setting [11], 60 to 74%; under setting [12], 95 to 100%. The pest or weed control at 140 g/ha by setting is: under setting [13], 45 to 59%; under setting [14], 0 to 29%; under setting [15], 0 to 29%.

As for `C#Cc1cc(C(F)(F)F)cc(Cl)c1-c1ccc(Cl)c(C(=O)OC)n1` [F239, methyl 3-chloro-6-(2-chloro-6-ethynyl-4-(trifluoromethyl)phenyl)picolinate], the pest or weed control at 140 g/ha lay in the range of 0 to 29% under setting [1]; 75 to 84% under setting [2]; 0 to 29% under setting [3]; 0 to 29% under setting [4]; 0 to 29% under setting [5]; 60 to 74% under setting [6]. In addition, the pest or weed control at 140 g/ha fell in the range of 0 to 29% under setting [7]; 0 to 29% under setting [8]; 0 to 29% under setting [9]; 0 to 29% under setting [10]; 0 to 29% under setting [11]; 30 to 44% under setting [12]. Further, the pest or weed control at 140 g/ha is 0 to 29% under setting [13], 0 to 29% under setting [14] and 0 to 29% under setting [15].

Turning to `COC(=O)c1nc(-c2cc(F)c3c(c2)OC(F)(F)O3)c(F)cc1Cl` [F240, Methyl 3-chloro-5-fluoro-6-(2,2,7-trifluorobenzo[d][1,3]dioxol-5-yl)picolinate], the pest or weed control at 140 g/ha by setting is: under setting [1], 0 to 29%; under setting [2], 95 to 100%; under setting [3], 0 to 29%; under setting [4], 0 to 29%; under setting [5], 0 to 29%; under setting [6], 75 to 84%. In addition, the pest or weed control at 140 g/ha under setting [7] fell in the range of 0 to 29%; the pest or weed control at 140 g/ha under setting [8] was in the range of 0 to 29%; the pest or weed control at 140 g/ha under setting [9] was 0 to 29%; the pest or weed control at 140 g/ha under setting [10] is 0 to 29%; the pest or weed control at 140 g/ha under setting [11] fell in the range of 95 to 100%; the pest or weed control at 140 g/ha under setting [12] lay within 60 to 74%. Besides, the pest or weed control at 140 g/ha lay in the range of 30 to 44% under setting [13], 0 to 29% under setting [14] and 0 to 29% under setting [15].

`COC(=O)c1nc(-c2cc(F)c(C(F)(F)F)cc2Cl)c(F)cc1Cl` [F241, Methyl 3-chloro-6-(2-chloro-5-fluoro-4-(trifluoromethyl)phenyl)-5-fluoropicolinate]: the pest or weed control at 140 g/ha under setting [1] is 60 to 74%; the pest or weed control at 140 g/ha under setting [2] is 95 to 100%; the pest or weed control at 140 g/ha under setting [3] fell in the range of 95 to 100%; the pest or weed control at 140 g/ha under setting [4] was in the range of 0 to 29%; the pest or weed control at 140 g/ha under setting [5] fell in the range of 95 to 100%; the pest or weed control at 140 g/ha under setting [6] is 95 to 100%. The pest or weed control at 140 g/ha runs as follows: under setting [7], 0 to 29%; under setting [8], 75 to 84%; under setting [9], 60 to 74%; under setting [10], 95 to 100%; under setting [11], 95 to 100%; under setting [12], 95 to 100%. The pest or weed control at 140 g/ha under setting [13] was in the range of 95 to 100%, the pest or weed control at 140 g/ha under setting [14] fell in the range of 85 to 94% and the pest or weed control at 140 g/ha under setting [15] lay in the range of 60 to 74%.

In the case of `COC(=O)c1nc(-c2cccc3c2OC(F)(F)O3)ccc1Cl` [F242, Methyl 3-chloro-6-(2,2-difluorobenzo[d][1,3]dioxol-4-yl)picolinate], the pest or weed control at 140 g/ha under setting [1] lay within 0 to 29%; the pest or weed control at 140 g/ha under setting [2] was 0 to 29%; the pest or weed control at 140 g/ha under setting [3] was in the range of 0 to 29%; the pest or weed control at 140 g/ha under setting [4] is 0 to 29%; the pest or weed control at 140 g/ha under setting [5] lay within 0 to 29%; the pest or weed control at 140 g/ha under setting [6] was in the range of 75 to 84%. Besides, the pest or weed control at 140 g/ha was 0 to 29% under setting [7]; 0 to 29% under setting [8]; 0 to 29% under setting [9]; 0 to 29% under setting [10]; 0 to 29% under setting [11]; 60 to 74% under setting [12]. Also, the pest or weed control at 140 g/ha lay in the range of 0 to 29% under setting [13], 0 to 29% under setting [14] and 0 to 29% under setting [15].

As to `COC(=O)c1nc(-c2cc(F)c(C(F)(F)F)cc2Cl)ccc1Cl` [F243, Methyl 3-chloro-6-(2-chloro-5-fluoro-4-(trifluoromethyl)phenyl)picolinate], the pest or weed control at 140 g/ha by setting is: under setting [1], 95 to 100%; under setting [2], 95 to 100%; under setting [3], 75 to 84%; under setting [4], 0 to 29%; under setting [5], 95 to 100%; under setting [6], 95 to 100%. The pest or weed control at 140 g/ha reads like this: under setting [7], 0 to 29%; under setting [8], 85 to 94%; under setting [9], 85 to 94%; under setting [10], 95 to 100%; under setting [11], 95 to 100%; under setting [12], 95 to 100%. For the same compound, the pest or weed control at 140 g/ha under setting [13] fell in the range of 95 to 100%, the pest or weed control at 140 g/ha under setting [14] is 75 to 84% and the pest or weed control at 140 g/ha under setting [15] is 85 to 94%.

On to `COC(=O)c1cc2c(c(-c3nc(C(=O)OC)c(Cl)cc3F)c1)OC(F)(F)O2` [F244, Methyl 3-chloro-6-(2,2-difluoro-6-(methoxycarbonyl)benzo[d][1,3]dioxol-4-yl)-5-fluoropicolinate], for which the pest or weed control at 140 g/ha by setting is: under setting [1], 0 to 29%; under setting [2], 0 to 29%; under setting [3], 0 to 29%; under setting [4], 0 to 29%; under setting [5], 0 to 29%; under setting [6], 0 to 29%. Besides, the pest or weed control at 140 g/ha is, setting by setting: under setting [7], 0 to 29%; under setting [8], 0 to 29%; under setting [9], 0 to 29%; under setting [10], 0 to 29%; under setting [11], 0 to 29%; under setting [12], 60 to 74%. Besides, the pest or weed control at 140 g/ha under setting [13] was in the range of 0 to 29%, the pest or weed control at 140 g/ha under setting [14] lay in the range of 0 to 29% and the pest or weed control at 140 g/ha under setting [15] was 0 to 29%.
